Data published in US20180344725A1, “QUINOLONE CHALCONE COMPOUNDS AND USES THEREOF” (priority 2015, published 2018).

Columns and labels:
Type in all cases: cell-based
HeLa = assay: Immunofluorescent staining: centrosomes and chromosome segregation; settings: for ACS (abnormal chromosome segregation) / Monopolar centrosome: 3 μM
Method: Cells on coverslips placed on the bottom of 35 mm tissue culture plates or 6-well clustered dishes were treated for 12-24 hours with the CTR compounds to be tested. Subsequently, the cells were fixed with 100% methanol for 15 minutes and washed with 1×PBS three times. Cells were then “blocked” with 3% BSA or 1% (v/v) FBS plus 1×PBST (1×PBS buffer containing 0.1% (v/v) Triton X-100 or 0.2% Tween 20), and incubated overnight at 4° C. with primary antibodies, with gentle agitation. Unbound primary antibodies were washed off with PBST, and a secondary antibody was added for 1 hour in the dark. Secondary antibodies were conjugated to Alexa 488 or 568. DNA was counterstained with DRAQ5 or DAPI. Subsequently, coverslips were washed three times with 1×PBST for 10 minutes each, followed by mounting them onto slides with 90% glycerol in 1×PBS. Each slide was visualized with a Carl Zeiss 510 Meta laser scanning microscope or an Axioscope. Image analysis was done with an LSM image examiner equipped with the microscopes (Carl Zeiss, Toronto, ON, Canada).
The cancer-specific increase of mitotic cells in response to CTR-17 was correlated with the accumulation of cells with monopolar centrosomes and abnormal chromosome alignment/segregation (FIG. 11, Table 5). Cells were either sham-treated or treated with 3.0 μM CTR-17 for 12 hours or 24 hours, followed by analyses of cell cycle progression, centrosome abnormalities, and chromosome alignment/segregation. […] The mitotic index was determined by fluorescence microscopic analysis of at least 200 cells for each cell type, and data was expressed as percentage mean±S.E.M. of at least two independent experiments.
Asynchronously growing cells were treated with 1 μM CTR-20 for 24 hours, followed by examining cells arrested in mitosis. The percentage of mitotic cells was calculated based on the examination of at least 250-400 cells. Cells treated with 1 μM CTR-20 for 24 hours on coverslips were fixed with ice-cold methanol, immunostained with an α-tubulin antibody, and then counterstained DNA with DRAQ5 prior to observing by florescent microscopy (Table 6). […] Similarly, cells treated with 1 μM CTR-20 accumulated monopolar centrosomes and defective chromosomal alignment and segregation in a cancer-specific manner.

MCF10AT1 = assay: SRB cell viability, isogenic breast cell lines; settings: 0.39 μM, 72 hours
Method: (§1) FIG. 9 illustrates that CTR-17, CTR-20, CTR-21 and CTR-32 preferentially kill the fully malignant […] breast cancer cells over the pre-malignant MCF10AT1 and the non-malignant MCF-10A breast cells. Cells were treated with (A) CTR-17 at doses of 0.10, 0.39, 1.56 or 6.25 μM; (B) CTR-20 at doses of 0.10, 0.39, 1.56 or 6.25 μM; (C) CTR-21 at doses of 7.81, 15.63, 31.25, 62.5, 125 or 250 nM; or (D) CTR-32 at doses of 7.81, 15.63, 31.25, 62.5, 125 or 250 nM for 72 hours. Cell viability was determined using an SRB assay.
(§2) All of the cell lines used were purchased from ATCC and cultured in RPMI-1640 supplemented with 10% fetal bovine serum and antibiotics (100 units penicillin/100 μg/ml streptomycin), unless stated otherwise. 1845B5 and MCF-10A non-cancer breast cell lines were cultured in DME/F12 medium supplemented with 10% fetal bovine serum, antibiotics and growth factors. KB-3-1 is a human epidermal carcinoma cell line and KB-C-2 is its isogenic multidrug-resistant cell line with over-expressing ABCB1/P-gp. […] The human small cell lung carcinoma H69 cell line and its multidrug-resistant MRP1-overexpressing isogenic H69AR cell line were purchased from ATCC. The H69AR cell line was established in the presence of increasing concentrations of Adriamycin (doxorubicin). H69 cells grow as large multi-cell aggregates, making it difficult to accurately count cell numbers. Therefore, the cytotoxicity results obtained from H69AR cells were compared to SW1271, a small cell lung carcinoma cell line without a multidrug-resistant phenotype. The IL-6 dependent bortezomib-resistant ANBL6-BR cell line was further supplemented with 1 ng/ml of IL-6. The MCF10AT1 and MCF10CA1a cell lines are isogenic to the MCF10A cell line, and obtained from Dr. Valerie Weaver at the Center for Bioengineering and Tissue Regeneration, UCSF, CA, USA. MCF10AT1 is a premalignant cell line generated by transforming MCF10A with c-Ha-Ras; and MCF10CA1a was isolated by selecting malignant cells after MCF10AT1 cells were engrafted into mice (Liu & Lin 2004; Marella et al. 2009). The MCF10AT1 and MCF10CA1a cells were cultured in DMEM supplemented with 10% FBS (volume/volume). MDA-MB231TaxR cell line was generated in house by culturing MDA-MB231 cells in gradually increasing doses of paclitaxel over one-year period, and finally maintained at 100 nM paclitaxel. The drug-resistant cells were cultured in the absence of drug for at least one passage before carrying out experiments. All cells were maintained in a humidified incubator at 37° C. (5% CO2/95% air). Cell line authentication was performed using short tandem repeat (STR) profiling.
(§3) For (anti)proliferation assays, 4,000-5,000 cells/well of the 96-well clustered dish were incubated for 16 hours, as described previously (Hu et al., 2008; Skehan et al., 1990). After 16 hours, culture medium was replaced with fresh medium containing different dilutions of test compounds dissolved in DMSO. Some wells were treated with 100 μl of 10% trichloroacetic acid (TCA) as a negative control and sham (medium with dimethyl sulfoxide; DMSO) treated cells were used as a positive control. After 72 hours post-incubation, medium was removed and cells were fixed with 10% TCA at 4° C. for 1 hour. TCA was removed and cells were washed with cold tap water, and plate was air-dried, followed by addition of 50 μl of 0.4% SRB staining solution to each well. After 30 minutes incubation, SRB staining solution was removed. Cells were washed with 1% acetic acid solution, and then washed with tap water to remove unbound staining solution, followed by air-drying. 200 μl of 10 mM (pH10.5) trizma base buffer was added to each well to solubilise macromolecules. SRB stained macromolecules were determined at a 540 nm wavelength using an automated plate reader (Synergy H4 Hybrid Multi-Mode Microplate Reader, BioTek, Winooski, Vt.). Cell growth (inhibition) was calculated by the following formula: […]

[1] = SRB cell viability, isogenic breast cell lines; settings: human, MCF10AT1 cells (pre-malignant breast cells), 31.25 nM
Method: as §1, §2, §3

COc1ccccc1C(=O)/C=C/c1cc2ccccc2[nH]c1=O [CTR-17, (E)-3-(3-(2-Methoxyphenyl)-3-oxoprop-1-enyl)quinolin-2(1H)-one]
ACS (abnormal chromosome segregation) (HeLa; 12 h post-treatment): 20.0 ± 4.5% of total mitotic cells
Monopolar centrosome (HeLa; 12 h post-treatment): 80.0 ± 4.5% of total mitotic cells
ACS (abnormal chromosome segregation) (HeLa; 24 h post-treatment): 0.0 ± 0.0% of total mitotic cells
Monopolar centrosome (HeLa; 24 h post-treatment): 100.0 ± 0.0% of total mitotic cells
Cell survival rate (MCF10AT1): 60%

COc1ccc2[nH]c(=O)c(/C=C/C(=O)c3ccccc3OC)cc2c1 [CTR-20, (E)-6-Methoxy-3-(3-(2-methoxyphenyl)-3-oxoprop-1-enyl) quinolin-2(1H)-one]
ACA/S (%) (abnormal chromosome alignment and segregation) (HeLa; 1 μM, 24 hours): 34.97 ± 1.96%
Monopolar (%) (HeLa; 1 μM, 24 hours): 48.13 ± 3.34%
Cell survival rate (MCF10AT1): 20%

COc1ccccc1C(=O)/C=C/c1cc2cccc(OC)c2[nH]c1=O [CTR-21, (E)-8-methoxy-3-(3-(2-methoxyphenyl)-3-oxoprop-1-enyl) quinolin-2(1H)-one]
viability at 72 h, 0.03125 µM [1]: 24%

CCOc1ccccc1C(=O)/C=C/c1cc2ccccc2[nH]c1=O [CTR-32, (E)-3-(3-(2-ethoxyphenyl)-3-oxoprop-1-enyl)quinolin-2(1H)-one]
viability at 72 h, 0.03125 µM [1]: 70%
